Values joined by “and” are separate entries in the source; they are usually repeats but may differ in a detail not shown here. Equal values may be shown once. Toxic doses and inconclusive results are not listed.
Test system: CD2F1 mice, L1210 leukemia ip, survival T/C
Experiment: NCI In Vivo Anticancer Drug Screen. Data for tumor model L1210 Leukemia (intraperitoneal) in CD2F1 (CDF1) mice
Details: endpoint: mean survival time, higher = longer survival
Outline: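 Vehicle-treated tumor-bearing mice served as controls (C) for compound-treated mice (T). Reported figure is T divided by C.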

[1] = dose: 25.0 mg/kg/injection, schedule: Q04DX003 (ip), vehicle: saline
[2] = dose: 100.0 mg/kg/injection, schedule: Q04DX003 (ip), vehicle: saline
[3] = dose: 25.0 mg/kg/injection, schedule: Q04DX002 (ip), vehicle: saline with Tween-80
[4] = dose: 50.0 mg/kg/injection, schedule: Q04DX002 (ip), vehicle: saline with Tween-80
[5] = dose: 100.0 mg/kg/injection, schedule: Q04DX002 (ip), vehicle: saline with Tween-80
[6] = dose: 400.0 mg/kg/injection, schedule: Q04DX002 (ip), vehicle: saline with Tween-80
[7] = dose: 200.0 mg/kg/injection, schedule: Q04DX002 (ip), vehicle: saline with Tween-80
[8] = dose: 100.0 mg/kg/injection, schedule: Q01DX009 (ip), vehicle: saline with Tween-80
[9] = dose: 200.0 mg/kg/injection, schedule: Q01DX009 (ip), vehicle: saline with Tween-80
[10] = dose: 400.0 mg/kg/injection, schedule: Q01DX009 (ip), vehicle: saline with Tween-80
[11] = dose: 12.5 mg/kg/injection, schedule: Q01DX009 (ip), vehicle: saline with Tween-80
[12] = dose: 25.0 mg/kg/injection, schedule: Q01DX009 (ip), vehicle: saline with Tween-80
[13] = dose: 50.0 mg/kg/injection, schedule: Q01DX009 (ip), vehicle: saline with Tween-80
[14] = dose: 100.0 mg/kg/injection, schedule: Q04DX003 (ip), vehicle: saline with Tween-80
[15] = dose: 200.0 mg/kg/injection, schedule: Q04DX003 (ip), vehicle: saline with Tween-80
[16] = dose: 400.0 mg/kg/injection, schedule: Q04DX003 (ip), vehicle: saline with Tween-80
[17] = dose: 6.25 mg/kg/injection, schedule: Q04DX003 (ip), vehicle: saline with Tween-80
[18] = dose: 25.0 mg/kg/injection, schedule: Q04DX003 (ip), vehicle: saline with Tween-80
[19] = dose: 100.0 mg/kg/injection, schedule: Q01DX001 (ip), vehicle: saline with Tween-80
[20] = dose: 200.0 mg/kg/injection, schedule: Q01DX001 (ip), vehicle: saline with Tween-80
[21] = dose: 400.0 mg/kg/injection, schedule: Q01DX001 (ip), vehicle: saline with Tween-80
[22] = dose: 25.0 mg/kg/injection, schedule: Q01DX009 (ip), vehicle: saline

## CN(C)C1CC[N-]CC1.CN(C)C1CC[N-]CC1.[Cl][Pt+2][Cl]
[1]
  T/C: 103 % of control
dose: 50.0 mg/kg/injection, schedule: Q04DX003 (ip), vehicle: saline
  T/C: 109 % of control
[2]
  T/C: 114 % of control

## NC(c1ccccc1)C(N)c1ccccc1 (stereo not given)
dose: 25.0 mg/kg/injection, schedule: Q04DX003 (ip), vehicle: other
  T/C: 102 % of control
dose: 50.0 mg/kg/injection, schedule: Q04DX003 (ip), vehicle: other
  T/C: 94 % of control
dose: 100.0 mg/kg/injection, schedule: Q04DX003 (ip), vehicle: other
  T/C: 88 % of control

## CCCCCCCCCCCCCCCCCCOCCOCCOCCOCCO
[3]
  T/C: 91 % of control
[4]
  T/C: 100 % of control
[5]
  T/C: 94 % of control
[6]
  T/C: 94 % of control

## CC(C)(C)COC(=S)Oc1ccc(C(C)(C)C)cc1
[5]
  T/C: 89 % of control
[7]
  T/C: 104 % of control
[6]
  T/C: 100 % of control

## COc1cccc(OC)c1OC(=O)/C=C/C(=O)Oc1c(OC)cccc1OC
[8]
  T/C: 96 % of control
[9]
  T/C: 96 % of control
[10]
  T/C: 98 % of control

## CCCCC(=O)NN
[11]
  T/C: 90 % of control
[12]
  T/C: 104 % of control
[13]
  T/C: 118 % of control

## COc1ccc(-c2cc(C(=O)O)c3ccc(C)cc3n2)cc1
[14]
  T/C: 102 % of control
[15]
  T/C: 101 % of control
[16]
  T/C: 101 % of control

## CCC(=O)Nc1ccccc1Cl
[14]
  T/C: 103 % of control
[15]
  T/C: 100 % of control
[16]
  T/C: 100 % of control

## O=C1C=CC(=O)N1c1ccc(Cl)cc1[N+](=O)[O-]
[17]
  T/C: 98 % of control
[11]
  T/C: 97 % of control
dose: 12.5 mg/kg/injection, schedule: Q04DX003 (ip), vehicle: saline with Tween-80
  T/C: 101 % of control
[12]
  T/C: 96 % of control
[18]
  T/C: 98 % of control

## c1ccc(-c2ccccc2N=C2N=NN=N2)cc1
[19]
  T/C: 96 % of control
[14]
  T/C: 103 % of control
[20]
  T/C: 114 % of control
[15]
  T/C: 93 % of control
[21]
  T/C: 94 % of control
[16]
  T/C: 97 % of control

## CCCCCCCCCCCCC/C=N/NC(=O)c1ccc[n+](C)c1
[19]
  T/C: 93 % of control
[20]
  T/C: 98 % of control

## CCOC(=O)C(OC(=O)c1ccccc1)c1ccccc1 (stereo not given)
dose: 100.0 mg/kg/injection, schedule: Q01DX009 (ip), vehicle: other
  T/C: 98 % of control
dose: 200.0 mg/kg/injection, schedule: Q01DX009 (ip), vehicle: other
  T/C: 96 % of control
dose: 400.0 mg/kg/injection, schedule: Q01DX009 (ip), vehicle: other
  T/C: 96 % of control

## OCC1OC(n2cnc3c2NC=N[C@@H]3CO)C(O)C1O (stereo not given in full)
dose: 12.5 mg/kg/injection, schedule: Q01DX005 (ip), vehicle: water
  T/C: 100 % of control
dose: 25.0 mg/kg/injection, schedule: Q01DX005 (ip), vehicle: water
  T/C: 100 % of control
dose: 50.0 mg/kg/injection, schedule: Q01DX005 (ip), vehicle: water
  T/C: 104 % of control
dose: 100.0 mg/kg/injection, schedule: Q01DX005 (ip), vehicle: water
  T/C: 109 % of control
dose: 200.0 mg/kg/injection, schedule: Q01DX005 (ip), vehicle: water
  T/C: 111 % of control

## CC(=O)c1cccc(NS(=O)(=O)c2ccc(C)cc2)c1
[14]
  T/C: 97 % of control
[15]
  T/C: 99 % of control
[16]
  T/C: 99 % of control

## O=c1[nH]c(-c2ccccc2)c(N=Nc2ccccc2)c(=O)[nH]1
[19]
  T/C: 89 % of control
[20]
  T/C: 96 % of control
[21]
  T/C: 102 % of control

## O=CNc1ccccc1OCc1ccccc1
dose: 100.0 mg/kg/injection, schedule: Q01DX001 (ip), vehicle: saline
  T/C: 100 % of control
dose: 200.0 mg/kg/injection, schedule: Q01DX001 (ip), vehicle: saline
  T/C: 97 % of control
dose: 400.0 mg/kg/injection, schedule: Q01DX001 (ip), vehicle: saline
  T/C: 103 % of control

## CC(O)c1ccc[n+](CCc2cn(C)c3ccccc23)c1 (stereo not given)
dose: 6.25 mg/kg/injection, schedule: Q01DX009 (ip), vehicle: saline
  T/C: 97 % of control
dose: 6.25 mg/kg/injection, schedule: Q04DX003 (ip), vehicle: saline
  T/C: 94 % of control
dose: 12.5 mg/kg/injection, schedule: Q01DX009 (ip), vehicle: saline
  T/C: 96 % of control
dose: 12.5 mg/kg/injection, schedule: Q04DX003 (ip), vehicle: saline
  T/C: 92 % of control
[22]
  T/C: 105 % of control
[1]
  T/C: 92 % of control

## CC([NH-])CC(C)[NH-].[Cl][Pt+2][Cl] (stereo not given)
dose: 3.12 mg/kg/injection, schedule: Q04DX003 (ip), vehicle: saline with Tween-80
  T/C: 122 % of control
[17]
  T/C: 162 % of control and 168 % of control
[18]
  T/C: 92 % of control

## c1ccc2c(c1)cc1cnc3cccc4ccc2c1c43
dose: 12.5 mg/kg/injection, schedule: Q04DX002 (ip), vehicle: saline with Tween-80
  T/C: 96 % of control
[3]
  T/C: 101 % of control
[4]
  T/C: 90 % of control

## O=C(OCC1OCOC(COC(=O)c2ccccc2)C(OC(=O)c2ccccc2)C1OC(=O)c1ccccc1)c1ccccc1 (stereo not given)
[5]
  T/C: 100 % of control
[7]
  T/C: 88 % of control
[6]
  T/C: 88 % of control

## N#CC1CC(c2cccs2)Nc2ccccc2N1 (stereo not given)
[14]
  T/C: 94 % of control
[15]
  T/C: 90 % of control
[16]
  T/C: 100 % of control

## Cc1noc(C)c1CO
dose: 100.0 mg/kg/injection, schedule: Q01DX009 (ip), vehicle: saline
  T/C: 100 % of control
dose: 200.0 mg/kg/injection, schedule: Q01DX009 (ip), vehicle: saline
  T/C: 101 % of control
dose: 400.0 mg/kg/injection, schedule: Q01DX009 (ip), vehicle: saline
  T/C: 101 % of control

## CC12CCC3C(CC=C4CC(SC(=N)N)CCC43C)C1CCC2=O (stereo not given)
dose: 75.0 mg/kg/injection, schedule: Q01DX001 (ip), vehicle: steriod suspending solution
  T/C: 90 % of control
dose: 150.0 mg/kg/injection, schedule: Q01DX001 (ip), vehicle: steriod suspending solution
  T/C: 98 % of control
dose: 300.0 mg/kg/injection, schedule: Q01DX001 (ip), vehicle: steriod suspending solution
  T/C: 98 % of control

## C(=N\Nc1nc2ccccc2s1)/c1ccnc2ccccc12
dose: 100.0 mg/kg/injection, schedule: Q04DX003 (ip), vehicle: Klucel (hydroxypropylcellulose) (HPC)
  T/C: 94 % of control
dose: 200.0 mg/kg/injection, schedule: Q04DX003 (ip), vehicle: Klucel (hydroxypropylcellulose) (HPC)
  T/C: 92 % of control
dose: 400.0 mg/kg/injection, schedule: Q04DX003 (ip), vehicle: Klucel (hydroxypropylcellulose) (HPC)
  T/C: 94 % of control

## CC(C)=CCC/C(C)=C/CN
[22]
  T/C: 98 % of control
[2]
  T/C: 86 % of control

## COc1cc(Cl)ccc1NC(=O)Nc1ccc(CCO)cc1
[13]
  T/C: 93 % of control
[8]
  T/C: 93 % of control

## CC(C)(C)[Si](C)(C)OP(=O)(O[Si](C)(C)C(C)(C)C)N(CCCl)CCCl
dose: 15.63 mg/kg/injection, schedule: Q01DX001 (ip), vehicle: distilled water + Tween-80
  T/C: 97 % of control
dose: 31.3 mg/kg/injection, schedule: Q01DX001 (ip), vehicle: distilled water + Tween-80
  T/C: 103 % of control
dose: 62.5 mg/kg/injection, schedule: Q01DX001 (ip), vehicle: distilled water + Tween-80
  T/C: 106 % of control
dose: 125.0 mg/kg/injection, schedule: Q01DX001 (ip), vehicle: distilled water + Tween-80
  T/C: 105 % of control
dose: 250.0 mg/kg/injection, schedule: Q01DX001 (ip), vehicle: distilled water + Tween-80
  T/C: 101 % of control
dose: 500.0 mg/kg/injection, schedule: Q01DX001 (ip), vehicle: distilled water + Tween-80
  T/C: 109 % of control

## Cc1ccc(N=C(C(=Nc2ccc(C)cc2)c2ccccc2)c2ccccc2)cc1
[9]
  T/C: 101 % of control
[10]
  T/C: 92 % of control

## CCCCCCCCCCCCC(=O)O.[Pb]
dose: 75.0 mg/kg/injection, schedule: Q01DX001 (ip), vehicle: other
  T/C: 107 % of control
dose: 150.0 mg/kg/injection, schedule: Q01DX001 (ip), vehicle: other
  T/C: 104 % of control
dose: 300.0 mg/kg/injection, schedule: Q01DX001 (ip), vehicle: other
  T/C: 97 % of control

## N#CC[CH2][Sn]([c]1ccccc1)([c]1ccccc1)[c]1ccccc1
[14]
  T/C: 94 % of control
[15]
  T/C: 91 % of control
[16]
  T/C: 89 % of control

From PubChem BioAssay AID256 (DTP/NCI, 2004)
